Results published in patent publication US20210361767A1, “RESCUING CANCER PATIENTS FROM RESISTANCE TO TREATMENT WITH INHIBITORS OF PD-1/PD-L1 INTERACTIONS” (Mayo Foundation for Medical Education and Research, priority 2018, published 2021).

Experiments:
[1] = system: Dul45 prostate cancer cells; assay: sPD-L1 ELISA of supernatants of Dul45 prostate cancer cells; format: cell-based; conditions: FIG. 4C
Experimental: (§1) Several tumor cell lines were treated with PBS (placebo) or with various protease inhibitors, including matrix metalloprotease inhibitors TAPI-2 and TAPI-0, aspartic protease inhibitor Pepstatin, cysteine protease inhibitor E-64, serine protease inhibitor Aprotinin, combinations of these inhibitors, and an array of other matrix metalloprotease inhibitors. Cell supernatants were queried for sPD-L1 by ELISA as published elsewhere (Frigola et la., supra). In brief, paired mouse IgG2 monoclonal antibodies against extracellular rhB7-H1 were utilized in a capture-detection plate assay using biotinylation and HRP-streptavidin detection. […] Concentrations were determined by optical density measurements along a known standard curve of rhB7-H1. Karpas-299 cells were incubated at 10 MM cells per ml in cell culture media (RPMI plus FBS plus Penicillin/Streptomycin plus buffering reagents) over 24 hours in the presence of 1 μl/100 μl DMSO or PBS (placebo), TAPI-2 at 278 μM, Pepstatin at 206.5 μM, E-64 at 185 μM, or Aprotinin at 220 μM, or a combination of the above materials at various concentrations. […] All statistical analyses were performed using R! software. Two-sided, unpaired Student t tests assessed statistical differences in experimental groups except where otherwise indicated. P values indicate comparison to vehicle control groups. P<0.05 was considered statistically significant.
Further studies were conducted using different types of cells.

[2] = system: Karpas-299 cells; assay: sPD-L1 ELISA of supernatants of Karpas-299 cells treated with protease inhibitors; format: cell-based; conditions: for sPD-L1 production with increasing concentrations: Karpas-299, 1 MM-10 MM cells/ml, aderbasib 320 pM to 32 mM, FIG. 4F
Experimental: as §1
Subsequent studies were conducted in which Karpas-299 cells were incubated with different matrix metalloprotease inhibitors with varying specificities. For example, Karpas-299 cells were incubated at 10 MM cells per ml in cell culture media over 24 hours in the presence of 1 μl/100 μl DMSO (control), 50 μM TAPI-2, 50 μM TAPI-0, 50 μM GI254023X, 5 μM Ro 32-3555, 5 μM ARP 101, 50 μM UK 370106, 500 pM MMP-9 inhibitor I, 5 μM Doxycycline, or some combination thereof.
Aderbasib is a selective inhibitor of matrix metalloproteases ADAM10 and ADAM17. Karpas-299 cells were incubated at 1 MM-10 MM cells/ml and treated for 24 hours with concentrations of aderbasib ranging from 320 pM to […].
(§2) Karpas-299 lymphoma cells producing sB7-H1 were cultured with an array of protease inhibitors. Supernatants from these cultures were isolated and analyzed for sB7H1 concentration by ELISA. Subsequently, activated human CD8+ T cells were cultured with recombinant sB7H1 protein and cell survival was measured at 24 hours. CD8+ T cells also were cultured with sB7H1-rich tumor cell line supernatants versus sB7H1-depleted supernatants over 48 hours in the presence of placebo, low dose (10 nM), or high dose (1 μM) anti-PD-1 antibody pembrolizumab, and cell survival was measured.

[3] = system: A786-0 (renal cell carcinoma) cells; assay: sPD-L1 ELISA of supernatants of A786-0 cells treated with protease inhibitors; format: cell-based
Experimental: Tumor cells were treated with PBS (placebo) or with various protease inhibitors, including MMP inhibitors TAPI-2 and TAPI-0, aspartic protease inhibitor Pepstatin, cysteine protease inhibitor E-64, serine protease inhibitor Aprotinin, combinations of these inhibitors, and an array of other MMP inhibitors. Cell supernatants were queried for sPD-L1 by ELISA. FIG. 4A, Karpas-299 (lymphoma) cells were treated with the indicated protease inhibitors. FIG. 4B, A786-0 (renal cell carcinoma) cells were treated with the indicated protease inhibitors. FIG. 4C, Dul45 cells were treated with the indicated protease inhibitors. FIG. 4D, Mel-B7H1 (transgenic melanoma) cells were treated with the indicated protease or metalloprotease inhibitors. FIG. 4E is a graph plotting sPD-L1 production induced by interferon treatment or high cell titer in A786-0 cells. Cells grown at 1 MM/ml in control DMSO produced little sPD-L1. […] FIG. 4F is a graph plotting the amount of sPD-L1 in supernatants of Karpas-299 cells treated with control or with varying concentrations of the ADAM10/17 inhibitor aderbasib.
Several tumor cell lines were treated with PBS (placebo) or with various protease inhibitors, including matrix metalloprotease inhibitors TAPI-2 and TAPI-0, aspartic protease inhibitor Pepstatin, cysteine protease inhibitor E-64, serine protease inhibitor Aprotinin, combinations of these inhibitors, and an array of other matrix metalloprotease inhibitors. Cell supernatants were queried for sPD-L1 by ELISA as published elsewhere (Frigola et la., supra). In brief, paired mouse IgG2 monoclonal antibodies against extracellular rhB7-H1 were utilized in a capture-detection plate assay using biotinylation and HRP-streptavidin detection. […] Concentrations were determined by optical density measurements along a known standard curve of rhB7-H1. […] Two-sided, unpaired Student t tests assessed statistical differences in experimental groups except where otherwise indicated. […]

[4] = system: A549 cells; assay: PD-L1 flow cytometry of A549 cells; format: cell-based; conditions: vs DMSO, FIGS. 7C, 7D
Experimental: (§3) FIGS. 7A and 7B are flow cytometry plots and graphs showing that cell PD-L1 expression is restored by treatment with an inhibitor of ADAM10 and/or ADAM17, and is decreased by treatment with exogenous recombinant ADAM10 or ADAM17. Cells were incubated in the presence of the indicated treatments, and PD-L1 flow cytometry was performed.

[5] = system: Karpas-299 cells; assay: PD-L1 flow cytometry of Karpas-299 cells; format: cell-based; conditions: vs DMSO, FIGS. 7A, 7B
Experimental: as §3

[6] = system: PD-L1 mRNA; assay: PD-L1 mRNA expression by RT-PCR in Karpas-299 cells; format: cell-based; conditions: Karpas-299, TAPI-2 at 278 μM, 24 hours; data not shown
[7] = system: Mel-B7H1 (transgenic melanoma) cells; assay: sPD-L1 ELISA of supernatants of Mel-B7H1 cells; format: cell-based; conditions: FIG. 4D
Experimental: as §1, with “significant. […]” for “significant.”

[8] = system: CD8+ T cells; assay: CD8+ T cell survival with A786-0 supernatant plus pembrolizumab; format: cell-based, human; conditions: supernatants from A786-0 RCC cells (20% A786-0 supernatant), increasing concentrations; partial rescue; FIG. 5D
Experimental: FIG. 5A is a graph plotting survival of CD8+ human T cells cocultured in the presence of PBS control or 5 μg/ml or 10 μg/ml recombinant sPD-L1. […] FIG. 5B is a graph plotting survival of CD8+ human T cells cultured in the presence of PBS control or sPD-L1-rich Karpas-299 cell line supernatant, in the presence or absence of PD1 or PD-L1 checkpoint inhibitors. Cell survival was measured by trypan blue staining. […] FIGS. 5C and 5D are a series of flow cytometry plots indicating survival of CD8+ T cells treated with various cell extracts and an anti-PD-1 antibody (nivolumab or pembrolizumab) or an anti-PD-L1 antibody (atezolizumab). FIG. 5C, CD8+ T cells isolated from healthy subjects were incubated with sPD-L1-rich supernatants from Karpas-299 cells, supernatants from Karpas-299 cells treated with inhibitor TAPI-0, supernatants from Karpas-299 cells “spiked” with TAPI-0 after isolation, and controls (top), and TMRE uptake/Annexin-V binding was measured by flow cytometry to assess the level of CD8+ T cell survival. CD8+ T cells also were incubated with supernatants from Karpas-299 cells, plus the indicated doses of anti-PD-1 and anti-PD-L1 antibodies (bottom). FIG. 5D, CD8+ T cells were incubated with PD-L1-rich supernatants from A787-0 RCC cells and the indicated concentrations of pembrolizumab.
In brief, A786-0 cells were incubated at 10 MM cells/ml for 48 hours. […]

[9] = system: CD8+ T cells; assay: CD8+ T cell survival with sPD-L1-rich Karpas-299 supernatant, with or without checkpoint inhibitors (trypan blue); format: cell-based, human; conditions: with sPD-L1-rich Karpas-299 supernatant, therapeutic doses of checkpoint inhibitor, n=3, FIG. 5B
Experimental: FIG. 5A is a graph plotting survival of CD8+ human T cells cocultured in the presence of PBS control or 5 μg/ml or 10 μg/ml recombinant sPD-L1. […] FIG. 5B is a graph plotting survival of CD8+ human T cells cultured in the presence of PBS control or sPD-L1-rich Karpas-299 cell line supernatant, in the presence or absence of PD1 or PD-L1 checkpoint inhibitors. Cell survival was measured by trypan blue staining. […] FIGS. 5C and 5D are a series of flow cytometry plots indicating survival of CD8+ T cells treated with various cell extracts and an anti-PD-1 antibody (nivolumab or pembrolizumab) or an anti-PD-L1 antibody (atezolizumab). FIG. 5C, CD8+ T cells isolated from healthy subjects were incubated with sPD-L1-rich supernatants from Karpas-299 cells, supernatants from Karpas-299 cells treated with inhibitor TAPI-0, supernatants from Karpas-299 cells “spiked” with TAPI-0 after isolation, and controls (top), and TMRE uptake/Annexin-V binding was measured by flow cytometry to assess the level of CD8+ T cell survival. CD8+ T cells also were incubated with supernatants from Karpas-299 cells, plus the indicated doses of anti-PD-1 and anti-PD-L1 antibodies (bottom). FIG. 5D, CD8+ T cells were incubated with PD-L1-rich supernatants from A787-0 RCC cells and the indicated concentrations of pembrolizumab. […]

[10] = system: CD8+ T cells; assay: CD8+ T cell survival with Karpas-299 supernatants, TMRE/Annexin-V flow cytometry; format: cell-based, human; conditions: for survival of CD8+ T cells: with Karpas-299 supernatant, FIG. 5C
Experimental: CD8+ T cells isolated from healthy subjects were incubated in the presence of 50% Karpas-299 supernatants of varying types and 50% fresh cell culture media. Supernatant types included sPD-L1-rich supernatants from Karpas-299 cells, supernatants from Karpas-299 cells treated with TAPI-0 to prevent sPL-L1 production, supernatants from Karpas-299 cells “spiked” with TAPI-0 after sPD-L1 production, and fresh culture media controls (FIG. 5C). Karpas-299 cell supernatants were generated by incubation at 10 MM cells/ml for 48 hours. TMRE/Annexin-V binding was measured by flow cytometry to assess the level of CD8+ T cell survival. Antibodies and reagents used for flow cytometry were Annexin-V-FITC, anti-mouse CD16/32 (BioLegend; San Diego, Calif.); anti-PD-L1, mouse isotype control (eBioScience/Thermo Fisher Scientific; Waltham, Mass.), TMRE-PE (Abcam; Cambridge, Mass.), BD Wash/Perm (Becton Dickenson; Waltham, Mass.). Flow cytometry was performed and analyzed using FlowJo (Treestar; Ashland, Oreg.).
CD8+ T cells were incubated with supernatants from Karpas-299 cells as above, plus varying doses of several anti-PD-1 antibodies.
as §2

COC(=O)N1CC2(CC2)C[C@H](C(=O)NO)[C@H]1C(=O)N1CCN(c2ccccc2)CC1 [aderbasib]
sPD-L1 secretion versus controls [1]: significantly reduced | sPD-L1 production with increasing concentrations ([2]; 24 hours): decreasing concentrations of sPD-L1 | sPD-L1 production with increasing concentrations ([2]; 24 hours, listed as Aderbasib): reduces sPD-L1 production | mean sPD-L1 production ([3]; A786-0 at 10 MM/ml, control DMSO 886 pg/ml, p=0.00018, n=5, FIG. 4E): 276 pg/mL

CC(C)C[C@H](CC(=O)NO)C(=O)N[C@H](C(=O)N[C@@H](C)C(=O)NCCN)C(C)(C)C [TAPI-2]
sPD-L1 secretion versus controls [1]: significantly reduced | PD-L1 expression (flow cytometry) [4]: restored | Karpas-299 production of sB7H1 ([2]; Example 3, supernatants by ELISA, p<0.0001): inhibited | secretion of sPD-L1 ([2]; Karpas-299, 10 MM cells per ml, 24 hours, TAPI-2 at 278 μM, vs DMSO or PBS, FIG. 4A, p=5.6×10^−12): reduced the secretion of sPD-L1 | PD-L1 expression (flow cytometry) [5]: restored | PD-L1 mRNA expression (RT-PCR) [6]: without reducing PD-L1 mRNA expression | sPD-L1 expression [7]: most significantly reduced | sPD-L1 secretion ([3]; A786-0 grown between 1 MM and 10 MM cells per ml, FIG. 4B): significantly reduced

CCN(CC)Cc1cc(C)c(N(Cc2ccccc2)S(=O)(=O)c2ccc(OC)cc2)c(C(=O)NO)c1 [MMPI9]
sPD-L1 secretion versus controls [1]: significantly reduced

pembrolizumab: humanized anti-PD-1 antibody, trade name KEYTRUDA
survival of CD8+ T cells [8]: increased the survival | rescue of CD8+ T cell survival [9]: did not rescue | sB7-H1-containing supernatant-induced CD8+ T cell death ([10]; Example 3, 48 hours, high dose (1 μM)): decreased | survival of CD8+ T cells ([10]; antibody at 10 nM): increased the survival | survival of CD8+ T cells ([10]; antibody at 1 μM, 1 μM pembrolizumab among the most effective): increased the survival
